From ChEMBL document CHEMBL1155237, “Selective inhibitors of the mutant B-Raf pathway: discovery of a potent and orally bioavailable aminoisoquinoline” (J Med Chem, 2009)

Experiments:
[1] = target: Tyrosine-protein kinase Lck (Homo sapiens, UniProt P06239); test: Inhibition of LCK
[2] = Clearance in Sprague-Dawley rat at 2 mg/kg, iv and 5 mg/kg, po; assay type: ADME, organism-based; settings: in vivo
Angiopoietin-1 receptor = Angiopoietin-1 receptor (Homo sapiens, UniProt Q02763); test: Inhibition of Tie2
Mus musculus [3] = test: Inhibition of ERK phosphorylation in human A375 SQ2 cells xenografted CD1 mouse at 100 mg/kg, po bid after 6 hrs; assay type: functional; settings: CD1, A375-SQ2, 6 h
[4] = Elimination half life in Sprague-Dawley rat at 2 mg/kg, iv and 5 mg/kg, po; assay type: ADME, organism-based; settings: in vivo, read-out: beta t1/2 (converted)
A-375 [5] = test: Antitumor activity against human A375 SQ2 cells xenografted in po dosed CD1 mouse assessed as inhibition of tumor growth administered twice daily for 14 days; assay type: functional; settings: 336 h
Mus musculus [6] = test: Inhibition of ERK phosphorylation in human A375 SQ2 cells xenografted CD1 mouse at 60 mg/kg, po bid after 6 hrs; assay type: functional; settings: CD1, A375-SQ2, 6 h
[7] = Volume of distribution at steady state in Sprague-Dawley rat at 2 mg/kg, iv and 5 mg/kg, po; assay type: ADME, organism-based; settings: in vivo, read-out: Vdss
A-375 [8] = test: Antitumor activity against human A375 SQ2 cells xenografted in CD1 mouse assessed as inhibition of tumor growth at 30 mg/kg, po bid for 14 days; assay type: functional; settings: A-375, 336 h
[9] = target: Vascular endothelial growth factor receptor 2 (Homo sapiens, UniProt P35968); test: Inhibition of KDR
A-375 [10] = test: Antitumor activity against human A375 SQ2 cells xenografted in CD1 mouse assessed as inhibition of tumor growth at 60 mg/kg, po bid for 14 days; assay type: functional; settings: A375-SQ2, 336 h
[11] = target: Mitogen-activated protein kinase 14 (Homo sapiens, UniProt Q16539); test: Inhibition of p38alpha
A-375 [12] = test: Antitumor activity against human A375 SQ2 cells xenografted in CD1 mouse assessed as regression of tumor growth at 100 mg/kg, po bid for 14 days; assay type: functional
[13] = Oral bioavailability in Sprague-Dawley rat at 5 mg/kg; assay type: ADME, organism-based; settings: in vivo
Mus musculus [14] = test: Inhibition of ERK phosphorylation in human A375 SQ2 cells xenografted CD1 mouse at 30 mg/kg, po bid after 6 hrs; assay type: functional; settings: CD1, A375-SQ2, 6 h
A-375 [15] = test: Antitumor activity against human A375 SQ2 cells xenografted in CD1 mouse assessed as inhibition of tumor growth at 10 mg/kg, po bid for 14 days; assay type: functional; settings: A375-SQ2, 336 h
Mus musculus [16] = test: Inhibition of ERK phosphorylation in human A375 SQ2 cells xenografted CD1 mouse at 20 mg/kg, po bid after 6 hrs; assay type: functional; settings: CD1, A375-SQ2, 6 h
Mus musculus [17] = test: Inhibition of ERK phosphorylation in human A375 SQ2 cells xenografted CD1 mouse at 10 mg/kg, po bid after 6 hrs; assay type: functional; settings: CD1, A375-SQ2, 6 h
Mus musculus [18] = test: Inhibition of ERK phosphorylation in human A375 SQ2 cells xenografted CD1 mouse at 35 mg/kg, po bid after 6 hrs; assay type: functional; settings: CD1, A375-SQ2, 6 h
[19] = AUC (0 to 24 hrs) in human A375 SQ2 cells xenografted po dosed CD1 mouse administered twice daily for 14 days; assay type: ADME, organism-based; set-up: time < 24 hr, route oral; settings: in vivo
A-375 [20] = test: Antitumor activity against human A375 SQ2 cells xenografted in CD1 mouse assessed as inhibition of tumor growth at 20 mg/kg, po bid for 14 days; assay type: functional; set-up: Activity: scale not given: the % may be the effect or the level left; settings: for inhibition in vivo at 20 mg/kg: Mus musculus, A375-SQ2, 336 h
A-375 [21] = test: Antitumor activity against human A375 SQ2 cells xenografted in CD1 mouse assessed as regression of tumor growth at 35 mg/kg, po bid for 14 days; assay type: functional
[22] = target: Serine/threonine-protein kinase B-raf (Homo sapiens, UniProt P15056, V600E); test: Inhibition of recombinant Braf V600E mutant
Mus musculus [23] = test: Inhibition of ERK phosphorylation in human A375 SQ2 cells xenografted CD1 mouse at 17.5 mg/kg, po bid after 6 hrs; assay type: functional; settings: CD1, A-375, 6 h
A-375 [24] = test: Antitumor activity against human A375 SQ2 cells xenografted in CD1 mouse assessed as inhibition of tumor growth at 17.5 mg/kg, po bid for 14 days; assay type: functional; settings: A375-SQ2, 336 h
A-375 [25] = test: Antitumor activity against human A375 SQ2 cells xenografted in CD1 mouse assessed as inhibition of tumor growth at 5 mg/kg, po bid for 14 days; assay type: functional; settings: A375-SQ2, 336 h
Mus musculus [26] = test: Inhibition of ERK phosphorylation in human A375 SQ2 cells xenografted CD1 mouse at 5 mg/kg, po bid after 6 hrs; assay type: functional; settings: CD1, A-375, 6 h

Sequence of Serine/threonine-protein kinase B-raf (P15056 2-766 V600E limits assumed): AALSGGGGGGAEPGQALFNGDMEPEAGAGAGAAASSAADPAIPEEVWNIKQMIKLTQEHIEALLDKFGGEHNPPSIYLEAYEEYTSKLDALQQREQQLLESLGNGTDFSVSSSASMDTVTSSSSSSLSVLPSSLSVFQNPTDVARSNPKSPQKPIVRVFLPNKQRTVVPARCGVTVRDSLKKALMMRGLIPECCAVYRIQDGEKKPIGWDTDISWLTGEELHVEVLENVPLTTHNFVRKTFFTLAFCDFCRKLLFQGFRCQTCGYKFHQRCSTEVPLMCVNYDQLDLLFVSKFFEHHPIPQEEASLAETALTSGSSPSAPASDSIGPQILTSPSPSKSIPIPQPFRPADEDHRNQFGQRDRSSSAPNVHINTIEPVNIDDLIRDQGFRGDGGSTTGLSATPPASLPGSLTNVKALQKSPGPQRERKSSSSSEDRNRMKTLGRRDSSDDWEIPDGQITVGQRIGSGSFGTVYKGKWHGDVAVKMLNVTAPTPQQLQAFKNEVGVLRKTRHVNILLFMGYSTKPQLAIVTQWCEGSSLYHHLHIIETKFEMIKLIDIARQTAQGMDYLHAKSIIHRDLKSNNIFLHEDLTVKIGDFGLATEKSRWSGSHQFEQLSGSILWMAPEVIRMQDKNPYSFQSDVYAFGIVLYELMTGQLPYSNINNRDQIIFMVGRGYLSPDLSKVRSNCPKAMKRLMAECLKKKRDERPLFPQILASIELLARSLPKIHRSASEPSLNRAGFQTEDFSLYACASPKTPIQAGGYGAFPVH
Sequence of Tyrosine-protein kinase Lck (P06239 whole entry): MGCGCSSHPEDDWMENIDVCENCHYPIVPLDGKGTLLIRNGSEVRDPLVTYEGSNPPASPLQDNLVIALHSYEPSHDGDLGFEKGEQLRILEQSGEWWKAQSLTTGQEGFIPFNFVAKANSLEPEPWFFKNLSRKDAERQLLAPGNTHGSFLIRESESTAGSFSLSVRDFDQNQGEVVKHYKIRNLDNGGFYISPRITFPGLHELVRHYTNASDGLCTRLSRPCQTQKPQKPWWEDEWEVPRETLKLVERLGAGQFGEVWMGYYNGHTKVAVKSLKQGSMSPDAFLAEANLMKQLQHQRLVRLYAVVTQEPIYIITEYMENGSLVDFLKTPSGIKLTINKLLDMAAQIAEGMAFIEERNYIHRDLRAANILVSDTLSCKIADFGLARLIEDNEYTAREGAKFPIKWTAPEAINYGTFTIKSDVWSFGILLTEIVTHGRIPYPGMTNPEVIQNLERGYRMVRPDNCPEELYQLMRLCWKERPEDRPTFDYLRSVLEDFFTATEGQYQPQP
Sequence of Mitogen-activated protein kinase 14 (Q16539 whole entry): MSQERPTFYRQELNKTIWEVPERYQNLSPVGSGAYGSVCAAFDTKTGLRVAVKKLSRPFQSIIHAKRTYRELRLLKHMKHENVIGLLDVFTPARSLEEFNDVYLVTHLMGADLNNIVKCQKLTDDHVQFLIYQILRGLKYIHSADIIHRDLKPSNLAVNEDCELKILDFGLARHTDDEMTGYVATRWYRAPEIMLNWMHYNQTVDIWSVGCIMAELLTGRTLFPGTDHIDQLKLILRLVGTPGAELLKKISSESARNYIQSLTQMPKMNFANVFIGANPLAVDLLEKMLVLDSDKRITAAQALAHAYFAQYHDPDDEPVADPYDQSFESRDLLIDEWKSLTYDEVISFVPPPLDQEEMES
Sequence of Angiopoietin-1 receptor (Q02763 whole entry): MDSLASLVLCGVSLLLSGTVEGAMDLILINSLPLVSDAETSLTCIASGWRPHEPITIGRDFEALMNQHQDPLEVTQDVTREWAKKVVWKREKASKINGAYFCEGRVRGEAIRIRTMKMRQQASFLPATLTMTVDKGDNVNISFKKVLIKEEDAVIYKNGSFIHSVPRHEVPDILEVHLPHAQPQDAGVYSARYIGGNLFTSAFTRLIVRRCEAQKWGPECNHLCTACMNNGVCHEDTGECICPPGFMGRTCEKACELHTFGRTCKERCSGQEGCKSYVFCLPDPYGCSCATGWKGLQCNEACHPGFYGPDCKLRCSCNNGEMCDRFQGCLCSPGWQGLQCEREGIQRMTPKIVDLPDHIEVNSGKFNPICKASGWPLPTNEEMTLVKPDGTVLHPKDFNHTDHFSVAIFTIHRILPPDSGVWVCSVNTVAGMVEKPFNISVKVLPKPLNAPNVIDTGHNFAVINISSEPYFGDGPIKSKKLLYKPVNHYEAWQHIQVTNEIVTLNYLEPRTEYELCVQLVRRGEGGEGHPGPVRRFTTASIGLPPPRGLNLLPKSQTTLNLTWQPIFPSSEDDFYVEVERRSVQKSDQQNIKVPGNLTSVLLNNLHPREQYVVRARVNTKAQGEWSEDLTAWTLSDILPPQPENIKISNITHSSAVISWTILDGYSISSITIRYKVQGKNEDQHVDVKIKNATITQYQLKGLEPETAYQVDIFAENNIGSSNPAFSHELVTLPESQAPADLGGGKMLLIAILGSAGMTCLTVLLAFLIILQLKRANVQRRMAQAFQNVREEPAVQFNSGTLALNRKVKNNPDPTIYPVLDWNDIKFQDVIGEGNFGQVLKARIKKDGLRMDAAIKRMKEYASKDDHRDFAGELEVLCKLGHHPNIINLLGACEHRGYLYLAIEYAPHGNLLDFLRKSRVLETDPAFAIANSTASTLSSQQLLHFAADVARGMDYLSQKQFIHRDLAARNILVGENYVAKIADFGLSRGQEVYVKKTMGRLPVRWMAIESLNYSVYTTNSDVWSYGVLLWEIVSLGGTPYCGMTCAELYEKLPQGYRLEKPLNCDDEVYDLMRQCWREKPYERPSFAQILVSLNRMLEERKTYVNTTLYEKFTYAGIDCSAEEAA
Sequence of Vascular endothelial growth factor receptor 2 (P35968 whole entry): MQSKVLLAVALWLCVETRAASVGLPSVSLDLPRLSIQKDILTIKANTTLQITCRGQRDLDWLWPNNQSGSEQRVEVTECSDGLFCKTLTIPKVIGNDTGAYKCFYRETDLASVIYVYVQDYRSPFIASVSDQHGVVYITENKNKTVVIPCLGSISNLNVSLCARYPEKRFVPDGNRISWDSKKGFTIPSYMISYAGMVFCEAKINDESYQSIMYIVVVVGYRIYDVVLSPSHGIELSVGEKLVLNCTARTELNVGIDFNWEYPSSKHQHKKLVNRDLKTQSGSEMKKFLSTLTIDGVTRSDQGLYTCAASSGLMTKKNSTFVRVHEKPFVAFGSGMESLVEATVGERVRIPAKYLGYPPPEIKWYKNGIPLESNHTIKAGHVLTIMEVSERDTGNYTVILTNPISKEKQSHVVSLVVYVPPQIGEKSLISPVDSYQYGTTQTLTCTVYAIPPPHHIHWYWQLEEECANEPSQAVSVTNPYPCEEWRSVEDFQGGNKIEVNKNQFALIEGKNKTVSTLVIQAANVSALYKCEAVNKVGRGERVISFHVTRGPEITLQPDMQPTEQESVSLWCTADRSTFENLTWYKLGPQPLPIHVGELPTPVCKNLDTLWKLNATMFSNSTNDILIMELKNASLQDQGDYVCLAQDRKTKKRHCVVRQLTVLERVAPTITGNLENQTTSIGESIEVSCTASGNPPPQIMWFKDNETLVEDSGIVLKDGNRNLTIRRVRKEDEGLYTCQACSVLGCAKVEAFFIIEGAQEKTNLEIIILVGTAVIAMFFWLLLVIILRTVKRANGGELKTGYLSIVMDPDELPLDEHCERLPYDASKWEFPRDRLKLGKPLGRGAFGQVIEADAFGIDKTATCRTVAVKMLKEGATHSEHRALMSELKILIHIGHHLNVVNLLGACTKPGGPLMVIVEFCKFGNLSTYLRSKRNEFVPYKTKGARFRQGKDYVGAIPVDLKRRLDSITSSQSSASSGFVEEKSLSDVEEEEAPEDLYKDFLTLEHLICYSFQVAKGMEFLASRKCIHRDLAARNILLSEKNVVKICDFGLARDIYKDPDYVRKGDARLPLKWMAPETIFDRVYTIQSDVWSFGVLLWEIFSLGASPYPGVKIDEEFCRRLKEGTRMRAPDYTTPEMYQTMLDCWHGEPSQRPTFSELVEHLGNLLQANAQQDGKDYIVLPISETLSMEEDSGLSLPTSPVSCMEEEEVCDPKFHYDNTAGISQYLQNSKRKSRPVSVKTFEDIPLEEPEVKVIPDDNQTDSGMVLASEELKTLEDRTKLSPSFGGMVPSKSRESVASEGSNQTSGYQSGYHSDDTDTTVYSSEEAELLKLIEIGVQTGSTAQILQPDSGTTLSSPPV

SMILES	IC50 [1] [nM]	clearance [2] [mL/min/kg]	IC50 (Angiopoietin-1 receptor) [nM]	half-life [4] [h]	ED50 (A-375 [5]) [mg/kg]	Vd [7] [L/kg]	IC50 [9] [nM]	IC50 [11] [nM]	bioavailability [13] [%]	inhibition in vivo at 35 mg/kg (Mus musculus [18]) [%]	Activity (A-375 [21]) [%]	IC50 [22] [nM]	also measured
CNc1ncc2cc(-c3c(C)ccc4c(Nc5cc(C(C)(C)C)nn5C)nccc34)ccc2n1	21	30	200	3.9	27	5.5	230	110	24	–	–	–	inhibition in vivo at 100 mg/kg (Mus musculus [3]): 78%; inhibition in vivo at 60 mg/kg (Mus musculus [6]): 67%; inhibition in vivo at 30 mg/kg (A-375 [8]): 60%; inhibition in vivo at 60 mg/kg (A-375 [10]): 90%; Activity (A-375 [12]): 45%; inhibition in vivo at 30 mg/kg (Mus musculus [14]): 50%
CNc1cc(-c2cccnc2Nc2c(C)ccc3c(Nc4ccc5sc(C)nc5c4)nccc23)ncn1	23	5.5	5.8	2.9	11	0.72	170	350	100	66	24	–	inhibition in vivo at 10 mg/kg (A-375 [15]): 42%; inhibition in vivo at 20 mg/kg (Mus musculus [16]): 52%; inhibition in vivo at 10 mg/kg (Mus musculus [17]): 30%; AUC at 24 h [19]: 12300 ng·h/mL; inhibition in vivo at 20 mg/kg (A-375 [20]): 85%
CNc1ncc2cc(-c3c(C)ccc4c(Nc5ccc(Cl)cc5)nccc34)ccc2n1	110	–	> 1000	–	–	–	> 25000	> 1600	–	–	–	5.4	–
CNc1ncc2cc(-c3c(C)ccc4c(Nc5ccc6c(c5)NC(=O)C6(C)C)nccc34)ccc2n1	78	10.8	> 1000	4.8	4.7	4.3	240	51	55	85	75	21	inhibition in vivo at 10 mg/kg (A-375 [15]): 85%; inhibition in vivo at 20 mg/kg (Mus musculus [16]): 82%; inhibition in vivo at 10 mg/kg (Mus musculus [17]): 60%; Activity (A-375 [20]): 55%
Cc1ccc2c(Nc3ccc(Cl)cc3)nccc2c1Nc1ncccc1-c1ccncn1	280	11.2	520	3.5	–	2.2	> 25000	> 1600	83	–	–	3.4	–
CNc1cc(-c2cccnc2Nc2c(C)ccc3c(Nc4ccc(C#N)cc4)nccc23)ncn1	150	1.83	400	2.7	11.5	0.37	> 1000	> 1600	100	78	17	39	inhibition in vivo at 10 mg/kg (A-375 [15]): 50%; inhibition in vivo at 10 mg/kg (Mus musculus [17]): 21%; inhibition in vivo at 17.5 mg/kg (Mus musculus [23]): 63%; AUC at 24 h [19]: 52800 ng·h/mL; inhibition in vivo at 17.5 mg/kg (A-375 [24]): 80%
Cc1ccc(C(=O)Nc2cccc(C(F)(F)F)c2)cc1Nc1ncccc1-c1ccncn1	–	35	–	1.3	–	1.9	4.2	12	16	–	–	0.46	–
Cc1ccc2c(Nc3cccc(C(F)(F)F)c3)nccc2c1Nc1ncccc1-c1ccncn1	81	20	47	4.5	–	3.7	760	> 1600	22	–	–	17	–
CNc1cc(-c2cccnc2Nc2c(C)ccc3c(Nc4ccc(Cl)cc4)nccc23)ncn1	12	4.83	24	4.7	–	1.7	300	> 1600	100	–	–	56	–
CNc1ncc2cc(-c3cc(C(=O)Nc4cccc(C(F)(F)F)c4)ccc3C)ccc2n1	0.27	26.7	1.8	2.3	–	3.6	–	3.5	–	–	–	1.7	–
C#Cc1cccc(Nc2nccc3c(Nc4ncccc4-c4cc(NC)ncn4)c(C)ccc23)c1	210	12.2	8.1	2.8	13	2.2	420	450	76	81	54	–	inhibition in vivo at 5 mg/kg (A-375 [25]): 18%; inhibition in vivo at 20 mg/kg (Mus musculus [16]): 40%; AUC at 24 h [19]: 9410 ng·h/mL; inhibition in vivo at 20 mg/kg (A-375 [20]): 78%; inhibition in vivo at 5 mg/kg (Mus musculus [26]): 5%
